Assay results taken from the supplement of paper PMC10307832.

Columns and labels:
Experiment in all cases: relative viability (nuclei count vs DMSO), 5 days (fraction); higher = more cells survive
[1] = compound: C/C(=N\NC(=S)N1CCC1)/C2=CC=CC=N2
Procedure, shortened: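 Lung cancer cell lines received five library-drug doses (not always all listed) spaced by √10, pinned on vehicle-anchored 1536-well plates after an overnight stay at 37 °C. Five days later, with no medium change, nuclei were Hoechst-stained, imaged at 4× and counted with MetaXpress. Viability is treated-well nuclei relative to vehicle-well nuclei, as a median across plates. Passing plates had control CV below 25% and at least one doubling.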

[2] = compound: C/C(=N\NC(=S)N1CCC1)/C2=CC=CC=N2 + CC(C)C[C@H](NC(=O)[C@H](Cc1ccccc1)NC(=O)c1cnccn1)B(O)O [Bortezomib] (partner 0.002 µM)
Procedure, shortened: (§1)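 Five library-drug doses in √10 steps were combined with a fixed anchor-drug dose, or a single drug was given alone, by pin tool to lung cancer cell lines in 1536-well plates the day after seeding. Nuclei were stained and counted after 5 days. Relative viability is the nuclei count in treated wells over that in vehicle wells, taken as the median of duplicate plates.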

[3] = compound: C/C(=N\NC(=S)N1CCC1)/C2=CC=CC=N2 + CC1(C)CCC(c2ccc(Cl)cc2)=C(CN2CCN(c3ccc(C(=O)NS(=O)(=O)c4ccc(N[C@H](CCN5CCOCC5)CSc5ccccc5)c(S(=O)(=O)C(F)(F)F)c4)cc3)CC2)C1 [Navitoclax] (partner 0.5 µM)
Procedure, shortened: as §1

[4] = compound: C/C(=N\NC(=S)N1CCC1)/C2=CC=CC=N2 + COc1cc2c(Oc3ccc(NC(=O)C4(C(=O)Nc5ccc(F)cc5)CC4)cc3F)ccnc2cc1OCCCN1CCOCC1 [Foretinib] (partner 0.25 µM)
Procedure, shortened: as §1

[5] = compound: C/C(=N\NC(=S)N1CCC1)/C2=CC=CC=N2 + CS(=O)(=O)CCNCc1ccc(-c2ccc3ncnc(Nc4ccc(OCc5cccc(F)c5)c(Cl)c4)c3c2)o1 [Lapatinib] (partner 2 µM)
Procedure, shortened: as §1

[6] = compound: C/C(=N\NC(=S)N1CCC1)/C2=CC=CC=N2 + CS(=O)(=O)N1CCN(Cc2cc3nc(-c4cccc5[nH]ncc45)nc(N4CCOCC4)c3s2)CC1 [Pictilisib] (partner 1 µM)
Procedure, shortened: as §1

[7] = compound: C/C(=N\NC(=S)N1CCC1)/C2=CC=CC=N2 + C[C@@H](Oc1cc(-c2cnn(C3CCNCC3)c2)cnc1N)c1c(Cl)ccc(F)c1Cl [Crizotinib] (partner 1 µM)
Procedure, shortened: as §1

[8] = compound: C/C(=N\NC(=S)N1CCC1)/C2=CC=CC=N2 + C[C@]1(O)C[C@@H](c2nc(-c3ccc4ccc(-c5ccccc5)nc4c3)c3c(N)nccn32)C1 [Linsitinib] (partner 1 µM)
Procedure, shortened: as §1

[9] = compound: C/C(=N\NC(=S)N1CCC1)/C2=CC=CC=N2 + Cc1nc(NC(=O)N2CCC[C@H]2C(N)=O)sc1-c1ccnc(C(C)(C)C(F)(F)F)c1 [Alpelisib] (partner 2 µM)
Procedure, shortened: as §1

[10] = compound: C/C(=N\NC(=S)N1CCC1)/C2=CC=CC=N2 + O=C(CCCCCCC(=O)Nc1ccccc1)NO [Vorinostat] (partner 1 µM)
Procedure, shortened: as §1

[11] = compound: C/C(=N\NC(=S)N1CCC1)/C2=CC=CC=N2 + O=C(c1cc(Cc2n[nH]c(=O)c3ccccc23)ccc1F)N1CCN(C(=O)C2CC2)CC1 [Olaparib] (partner 8 µM)
Procedure, shortened: as §1

IA-LM
relative viability ([1]; 0.05 µM): 0.0692
relative viability ([1]; 0.1581 µM): 0.0771
relative viability ([1]; 0.5 µM): 0.0669
relative viability ([1]; 1.581 µM): 0.0644
relative viability ([1]; 5 µM): 0.0517
relative viability ([2]; first compound 0.05 µM): 0.0596
relative viability ([2]; first compound 0.1581 µM): 0.0778
relative viability ([2]; first compound 0.5 µM): 0.0529
relative viability ([2]; first compound 1.581 µM): 0.0604
relative viability ([2]; first compound 5 µM): 0.0675
relative viability ([3]; first compound 0.05 µM): 0.0776
relative viability ([3]; first compound 0.1581 µM): 0.062
relative viability ([3]; first compound 0.5 µM): 0.0799
relative viability ([3]; first compound 1.581 µM): 0.0503
relative viability ([3]; first compound 5 µM): 0.0417
relative viability ([4]; first compound 0.05 µM): 0.0694
relative viability ([4]; first compound 0.1581 µM): 0.0465
relative viability ([4]; first compound 0.5 µM): 0.0654
relative viability ([4]; first compound 1.581 µM): 0.0441
relative viability ([4]; first compound 5 µM): 0.0339
relative viability ([5]; first compound 0.05 µM): 0.0819
relative viability ([5]; first compound 0.1581 µM): 0.067
relative viability ([5]; first compound 0.5 µM): 0.0525
relative viability ([5]; first compound 1.581 µM): 0.0618
relative viability ([5]; first compound 5 µM): 0.0601
relative viability ([6]; first compound 0.05 µM): 0.0879
relative viability ([6]; first compound 0.1581 µM): 0.0508
relative viability ([6]; first compound 0.5 µM): 0.0707
relative viability ([6]; first compound 1.581 µM): 0.0558
relative viability ([6]; first compound 5 µM): 0.0544
relative viability ([7]; first compound 0.05 µM): 0.0891
relative viability ([7]; first compound 0.1581 µM): 0.0621
relative viability ([7]; first compound 0.5 µM): 0.0599
relative viability ([7]; first compound 1.581 µM): 0.0518
relative viability ([7]; first compound 5 µM): 0.0471
relative viability ([8]; first compound 0.05 µM): 0.0757
relative viability ([8]; first compound 0.1581 µM): 0.0841
relative viability ([8]; first compound 0.5 µM): 0.0585
relative viability ([8]; first compound 1.581 µM): 0.0612
relative viability ([8]; first compound 5 µM): 0.0387
relative viability ([9]; first compound 0.05 µM): 0.0645
relative viability ([9]; first compound 0.1581 µM): 0.0816
relative viability ([9]; first compound 0.5 µM): 0.0594
relative viability ([9]; first compound 1.581 µM): 0.0596
relative viability ([9]; first compound 5 µM): 0.0781
relative viability ([10]; first compound 0.05 µM): 0.0691
relative viability ([10]; first compound 0.1581 µM): 0.0691
relative viability ([10]; first compound 0.5 µM): 0.0591
relative viability ([10]; first compound 1.581 µM): 0.059
relative viability ([10]; first compound 5 µM): 0.051
relative viability ([11]; first compound 0.05 µM): 0.115
relative viability ([11]; first compound 0.1581 µM): 0.107
relative viability ([11]; first compound 0.5 µM): 0.101
relative viability ([11]; first compound 1.581 µM): 0.0716
relative viability ([11]; first compound 5 µM): 0.0719
